Results published in PMC4797285 (Nucleic Acids Research, 2016).

Experiments:
[1] = tested on: ribosome on the mRNA (PURExpress in vitro protein synthesis kit); assay: Toe-printing assay; format: biochemical; settings: for Position of ribosome stalling in toe-print: 100 μM thiostrepton, 50 μM clindamycin
[2] = tested on: ribosomes translating 2XErmBL mRNA (RTS 100 E. coli HY Kit); assay: Disome formation assay; format: biochemical, Escherichia coli; settings: 20 μM erythromycin, positive control

Molecule	Position of ribosome stalling in toe-print [1]	further results
C=C(NC(=O)C(=C)NC(=O)c1csc(C2=N[C@@H]3c4csc(n4)[C@H]4NC(=O)c5csc(n5)[C@H]([C@](C)(O)[C@@H](C)O)NC(=O)[C@H]5CSC(=N5)/C(=C/C)NC(=O)[C@H]([C@@H](C)O)NC(=O)c5csc(n5)[C@]3(CC2)NC(=O)[C@H](C)NC(=O)C(=C)NC(=O)[C@H](C)NC(=O)[C@H]([C@@H](C)CC)N[C@@H]2C=Cc3c([C@H](C)O)cc(nc3[C@H]2O)C(=O)O[C@@H]4C)n1)C(N)=O [thiostrepton]	ribosomes accumulated at the AUG codon	–
CC[C@H]1OC(=O)[C@H](C)[C@@H](O[C@H]2C[C@@](C)(OC)[C@@H](O)[C@H](C)O2)[C@H](C)[C@@H](O[C@@H]2O[C@H](C)C[C@H](N(C)C)[C@H]2O)[C@](C)(O)C[C@@H](C)C(=O)[C@H](C)[C@@H](O)[C@]1(C)O [erythromycin]	–	Disome formation (translation arrest) [2]: generating the expected disome peaks
RRIRPRPPRLPRPRPR [Bac7(1–16)]	–	Toeprint for ribosomes stalled during initiation ([1]; 100 μM peptide, signal for full-length mRNA became stronger, similar to edeine): became weaker
CCC[C@@H]1C[C@@H](C(=O)N[C@@H]([C@H]2O[C@H](SC)[C@H](O)[C@@H](O)[C@H]2O)[C@H](C)Cl)N(C)C1 [clindamycin]	ribosomes accumulated at the AUG codon	–
